Experimental data as given in patent US20250215039A1, “NUCLEOSIDES FOR TREATING CANCER” (PRIMEFOUR THERAPEUTICS, INC., priority 2022, published 2025).
Read-outs that look alike come from different tables or passages of the source.

Test system: cancer cell lines
Experiment: Cancer cell proliferation activity (CellTiterGlo, 72 h)
Type: cell-based
Details: 72 h, 72 h, read-out: IC50
Protocol: Dose response relationships on cell proliferation was assessed for representative Compounds of the Disclosure on cancer cell lines. Briefly, compound treatment of cells started one day after seeding with a final DMSO concentration of 0.1%, and was performed by nanodrop-dispensing using a Tecan Dispenser. 0.1% DMSO (solvent) and Staurosporine (10 μM) served as high control (100% viability) and low control (0% viability), respectively.
Cells were cultured in the appropriate media. For the assays, cells were seeded in white cell culture-treated flat and clear bottom multiwell plates and incubated at 37° C. overnight before compound was added. After incubation for 72 h at 37° C. at 5% or 10% CO2 dependent on the medium, cell plates were equilibrated to room temperature for one hour, CellTiterGlo reagent (Promega) was added and luminescence was measured approximately an hour later using a luminometer.
Raw data were converted into percent cell viability relative to the high and low control, which were set to 100% and 0%, respectively.
The IC50 values are summarized in Tables 9A-1, Table 10A, and Table 10B.

`C=C[C@]1(CO)O[C@@H](Nc2[nH]c(=O)ncc2Br)C[C@@H]1O` [Cpd. No. 3, 5-bromo-6-(((2R,4S,5R)-4-hydroxy-5-(hydroxymethyl)-5-vinyltetrahydrofuran-2-yl)amino)pyrimidin-2(1H)-one] was tested, and the IC50 (5637 cell line (bladder)) was 5.02 µM, the IC50 (CLS439 cell line (bladder)) was > 50 µM and the IC50 (HS729 cell line (muscle)) was 4.91 µM. For the same compound, the IC50 (JAR cell line (placenta)) was > 50 µM, the IC50 (U20S cell line, bone) was > 50 µM and the IC50 (Homo sapiens, 22Rv1, 72 h, 22RV1 cell line (prostate)) was > 50 µM. The IC50 (Homo sapiens, 786-0, 72 h, 786O cell line (kidney)) was > 50 µM, the IC50 (Homo sapiens, A204, 72 h, A204 cell line (muscle)) was 1.1 µM and the IC50 (Homo sapiens, A549, 72 h, A549 cell line, lung) was 3.33 µM. For the same compound, the IC50 (Homo sapiens, A673, 72 h, A673 cell line (bone)) was > 50 µM, the IC50 (Homo sapiens, A2780, 72 h, A2780 cell line (ovary)) was > 50 µM and the IC50 (Homo sapiens, A-375, 72 h, A375 cell line (skin)) was 4.58 µM. The IC50 (Homo sapiens, A-431, 72 h, A431 cell line (skin)) was > 50 µM, the IC50 (Homo sapiens, ACHN, ACHN cell line (kidney)) was > 50 µM and the IC50 (Homo sapiens, ASPC1, 72 h, ASPC1 cell line (pancreas)) was > 50 µM. For the same compound, the IC50 (Homo sapiens, BT-20, 72 h, BT20 cell line (breast)) was > 50 µM, the IC50 (Homo sapiens, BXPC-3, 72 h, BXPC3 cell line (pancreas)) was > 50 µM and the IC50 (Homo sapiens, C-33-A, C33A cell line, endometrial) was 2.67 µM. For the same compound, the IC50 (Homo sapiens, CAKI-1, 72 h, CAKI1 cell line (kidney)) was 3.25 µM, the IC50 (Homo sapiens, COLO 205, 72 h, COLO205 cell line (colon)) was 2.31 µM and the IC50 (Homo sapiens, COLO-678, 72 h, COLO678 cell line (colon)) was > 50 µM. For the same compound, the IC50 (Homo sapiens, Ca-Ski, CASKI cell line, endometrial) was > 50 µM, the IC50 (Homo sapiens, Caco-2, 72 h, CACO2 cell line (colon)) was > 50 µM and the IC50 (Homo sapiens, Calu-6, 72 h, CALU6 cell line (lung)) was 6.06 µM. The IC50 (Homo sapiens, DLD-1, 72 h, DLD1 cell line (colon)) was > 50 µM, the IC50 (Homo sapiens, DU-145, 72 h, DU145 cell line (prostate)) was > 50 µM and the IC50 (Homo sapiens, EFO-21, 72 h, EFO21 cell line (ovary)) was > 50 µM. The IC50 (Homo sapiens, EJ-28, 72 h, EJ28 cell line (bladder)) was > 50 µM, the IC50 (Homo sapiens, Granta-519, 72 h, GRANTA-519 cell line (hematological)) was 1.06 µM and the IC50 (Homo sapiens, HCT-15, 72 h, HCT15 cell line (colon)) was > 50 µM. It also gave an IC50 (Homo sapiens, HCT-116, 72 h, HCT116 cell line (colon)) of 3.65 µM, an IC50 (Homo sapiens, HEK293, 72 h, HEK293 cell line (kidney)) of 3.46 µM and an IC50 (Homo sapiens, HL-60, 72 h, HL-60 cell line (hematological)) of 3.42 µM. For the same compound, the IC50 (Homo sapiens, HT-29, 72 h, HT29 cell line (colon)) was > 50 µM, the IC50 (Homo sapiens, HT-1080, 72 h, HT1080 cell line (connective tissue)) was 3.43 µM and the IC50 (Homo sapiens, HeLa, HELA cell line, endometrial) was 5.34 µM. The IC50 (Homo sapiens, HepG2, 72 h, HEPG2 cell line (liver)) was > 50 µM, the IC50 (Homo sapiens, Hs-578T, HS578T cell line, breast) was > 50 µM and the IC50 (Homo sapiens, IGROV-1, 72 h, IGROV1 cell line (ovary)) was > 50 µM. The IC50 (Homo sapiens, IMR-90, 72 h, IMR90 cell line, lung) was 5.39 µM, the IC50 (Homo sapiens, J82, 72 h, J82 cell line (bladder)) was > 50 µM and the IC50 (Homo sapiens, JEG-3, 72 h, JEG3 cell line (placenta)) was > 50 µM. It also gave an IC50 (Homo sapiens, JIMT-1, 72 h, JIMT1 cell line (breast)) of 11.8 µM, an IC50 (Homo sapiens, K562, 72 h, K-562 cell line (hematological)) of 5.04 µM and an IC50 (Homo sapiens, Kasumi 1, 72 h, KASUMI-1 cell line (hematological)) of 0.5 µM. For the same compound, the IC50 (Homo sapiens, L-363, 72 h, L-363 cell line (hematological)) was > 50 µM, the IC50 (Homo sapiens, LoVo, LOVO cell line (colon)) was > 50 µM and the IC50 (Homo sapiens, MCF7, 72 h, MCF7 cell line (breast)) was 2.6 µM. For the same compound, the IC50 (Homo sapiens, MDA-MB-231, 72 h, MDAMB231 cell line (breast)) was 2.96 µM, the IC50 (Homo sapiens, MDA-MB-435, 72 h, MDAMB435 cell line (skin)) was > 50 µM and the IC50 (Homo sapiens, MDA-MB-436, 72 h, MDAMB436 cell line (breast)) was 3.65 µM. For the same compound, the IC50 (Homo sapiens, MDA-MB-468, 72 h, MDAMB468 cell line (breast)) was > 50 µM, the IC50 (Homo sapiens, MG-63, 72 h, MG63 cell line (bone)) was 3.93 µM and the IC50 (Homo sapiens, MHH-ES-1, 72 h, MHHES1 cell line (bone)) was 4.87 µM. The IC50 (Homo sapiens, MIA PaCa-2, 72 h, MIAPACA2 cell line (pancreas)) was > 50 µM, the IC50 (Homo sapiens, MINO, MINO cell line (hematological)) was 1.51 µM and the IC50 (Homo sapiens, MV4-11, 72 h, MV4-11 cell line (hematological)) was 2.14 µM. For the same compound, the IC50 (Homo sapiens, NCI-H23, 72 h, NCI-H23 cell line (lung)) was 1.81 µM, the IC50 (Homo sapiens, NCI-H82, 72 h, NCIH82 cell line (lung)) was > 50 µM and the IC50 (Homo sapiens, NCI-H292, 72 h, NCIH292 cell line (lung)) was 5.41 µM. The IC50 (Homo sapiens, NCI-H460, 72 h, NCIH460 cell line (lung)) was > 50 µM, the IC50 (Homo sapiens, OVCAR-3, 72 h, OVCAR3 cell line (ovary)) was 3.08 µM and the IC50 (Homo sapiens, OVCAR-4, 72 h, OVCAR4 cell line (ovary)) was 3.18 µM. The IC50 (Homo sapiens, PANC-1, 72 h, PANC1 cell line (pancreas)) was > 50 µM, the IC50 (Homo sapiens, PC-3, 72 h, PC3 cell line (prostate)) was 4.81 µM and the IC50 (Homo sapiens, PLC-PRF-5, 72 h, PLCPRF5 cell line (liver)) was > 50 µM. For the same compound, the IC50 (Homo sapiens, Panc1005, 72 h, PANC1005 cell line (pancreas)) was > 50 µM, the IC50 (Homo sapiens, RD, RD cell line (muscle)) was 2.67 µM and the IC50 (Homo sapiens, Ramos, RAMOS cell line (hematological)) was 1.41 µM. For the same compound, the IC50 (Homo sapiens, SAOS-2, 72 h, SAOS2 cell line (bone)) was 1.7 µM, the IC50 (Homo sapiens, SF-268, 72 h, SF268 cell line (brain)) was > 50 µM and the IC50 (Homo sapiens, SF-295, 72 h, SF295 cell line (brain)) was > 50 µM. For the same compound, the IC50 (Homo sapiens, SK-BR-3, 72 h, SKBR3 cell line (breast)) was 3.45 µM, the IC50 (Homo sapiens, SK-HEP1, 72 h, SKHEP1 cell line (liver)) was 3.02 µM and the IC50 (Homo sapiens, SK-LMS-1, 72 h, SKLMS1 cell line (uterus)) was > 50 µM. For the same compound, the IC50 (Homo sapiens, SK-MEL-5, 72 h, SKMEL5 cell line, skin) was > 50 µM, the IC50 (Homo sapiens, SK-MEL-28, 72 h, SKMEL28 cell line (skin)) was 4.19 µM and the IC50 (Homo sapiens, SK-N-AS, SKNAS cell line (brain)) was 0.96 µM. For the same compound, the IC50 (Homo sapiens, SK-N-SH, SKNSH cell line (brain)) was 0.91 µM, the IC50 (Homo sapiens, SK-OV-3, 72 h, SKOV3 cell line (ovary)) was 2.45 µM and the IC50 (Homo sapiens, SNB-75, 72 h, SNB75 cell line (brain)) was > 50 µM. The IC50 (Homo sapiens, SU-DHL10, 72 h, SU-DHL-10 cell line (hematological)) was 5.56 µM, the IC50 (Homo sapiens, SU-DHL-6, 72 h, SU-DHL-6 cell line (hematological)) was > 50 µM and the IC50 (Homo sapiens, SW-620, 72 h, SW620 cell line (colon)) was > 50 µM. The IC50 (Homo sapiens, T-24, 72 h, T24 cell line (bladder)) was > 50 µM, the IC50 (Homo sapiens, TE-671, 72 h, TE671 cell line (muscle)) was 3.08 µM and the IC50 (Homo sapiens, THP-1, 72 h, THP-1 cell line (hematological)) was 3.01 µM. The IC50 (Homo sapiens, U-87 MG, U87MG cell line (brain)) was > 50 µM, the IC50 (Homo sapiens, UMUC3, 72 h, UMUC3 cell line (bladder)) was > 50 µM and the IC50 (Homo sapiens, UO-31, 72 h, UO31 cell line (kidney)) was > 50 µM. The IC50 (Homo sapiens, WSU-NHL, WSU-NHL cell line (hematological)) was 2.34 µM, the IC50 (MT-3, 72 h, MT3 cell line (breast)) was 3.68 µM and the IC50 (NCI-H358M, NCIH358M cell line (lung)) was 2.69 µM. The IC50 (PBMC, PBMC (hematological)) was > 50 µM and the IC50 (RD-ES, RDES cell line (bone)) was > 50 µM.
